Several values for one entry are separate records, joined by “and”; a condition that tells them apart may be missing. Equal values may be shown once.
System: Long Evans rats
Assay: Behavioral satiety sequence (BSS)
Type: in vivo, Long Evans rat
Excerpt: The Behavioural Satiety Sequence (BSS) is a technique used to evaluate physiological satiety. It is based on the expression of a sequence of behaviors including eating, grooming, locomotor activity, followed by resting, which are typically observed in rodents post-ingestion (Halford et al, 1998, Pharmacology Biochemistry and Behaviour. 61(2): 159-168). The BSS is a widely used model for determining the effects of novel pharmaceuticals on food intake and measures of satiety in rodents (Oliveira et al, 2011, Revista de Nutrição. 24(4) 619-628), and to discriminate the cause of reduced food intake following pharmacological manipulation. For example, treatments that may reduce food intake by non-specific mechanisms, such as immobility, malaise, and taste adulteration, will disrupt this sequence (Halford et al, 1998, Pharmacology Biochemistry and Behaviour. 61(2): 159-168).
Specifically, 12 male Long-Evans rats were food-deprived for 22 h with a 2 h feeding period each day. Rats were trained to consume daily food during the 2 h period over 25 days. The testing phase was initiated once the rats consistently consumed 16-18 g of food per day with ≤10% variance in amount of feed consumed. Feeding took place in designated individual boxes in a quiet room separate from the housing room. Continuous remote monitoring via video camera during feeding was used to assess the BSS. Food consumption was measured by weighing the total available food before and after the 2 h feeding window, correcting for spillage. Lorcaserin (1 mg/kg) was included as a reference control (Higgins et al, 2011, Neuropsychopharmacology. 37(5): 1177-1191). Subjects were tested using a repeated-measures, Latin square design with 2-3 days wash-out between treatment cycles.
On scheduled test days, animals were monitored remotely via video camera during the feeding access period. The occurrence of four mutually exclusive behaviors (eating/drinking, grooming, active, rest) were individually scored. Over the 2 h feeding period, behaviors were assessed every 30 seconds. Scores were compiled into 23 5 min timebins (timebin 24 was removed due to early removal of animals) and the frequency of each behavior within each timebin was calculated to determine a temporal frequency of each measure (Rodgers et al, 2010, Pharmacology Biochemistry and Behaviour. 97: 3-14). Percentage time was plotted for each behavioral sequence in each timebin to compare between treatment groups (Higgins et al, 2011, Neuropsychopharmacology. 37(5): 1177-1191).

[1] = Compound I-19 0.3 mg/kg, raw score per animal (LT-1 to LT-12)
[2] = Compound I-19 1 mg/kg i.p., AVG of the group
[3] = Compound I-19 1 mg/kg i.p., raw score per animal
[4] = Compound I-19 1 mg/kg, AVG of 12 animals

Clc1ccc(C2(OCC3OCCO3)c3ccccc3C3=NCCN32)cc1 (stereo not drawn) [Compound I-19]
BSS scoring G (grooming), Time Bin 22 (105-110 TOTAL) [1]: 0 (11×) and 1 | BSS scoring G (grooming), Time Bin 23 (110-115 TOTAL) [1]: 1 (4×) and 0 (7×) and 2 | BSS scoring G (grooming), Time Bin 24 (115-120 TOTAL) [1]: 0 (7×) and 1 (5×) | BSS scoring R (resting), Time Bin 19 (90-95 TOTAL) [1]: 1 (5×) and 0 (5×) and 2 and 6 | BSS scoring R (resting), Time Bin 20 (95-100 TOTAL) [1]: 0 (6×) and 1 (3×) and 4 and 2 (2×) | BSS scoring R (resting), Time Bin 21 (100-105 TOTAL) [1]: 0 (5×) and 1 (2×) and 3 (3×) and 2 and 10 | BSS scoring R (resting), Time Bin 22 (105-110 TOTAL) [1]: 0 (6×) and 4 and 10 and 6 and 1 and 2 (2×) | BSS scoring R (resting), Time Bin 23 (110-115 TOTAL) [1]: 0 (7×) and 3 and 6 (2×) and 2 (2×) | BSS scoring R (resting), Time Bin 24 (115-120 TOTAL) [1]: 0 (7×) and 10 and 6 and 7 and 1 (2×) | BSS scoring A (active), Time Bin 1 (0-5 TOTAL), AVG [2]: 0.11 | BSS scoring A (active), Time Bin 2 (5-10 TOTAL), AVG [2]: 0.04 | BSS scoring A (active), Time Bin 3 (10-15 TOTAL), AVG [2]: 0.07 | BSS scoring A (active), Time Bin 4 (15-20 TOTAL), AVG [2]: 0.02 | BSS scoring A (active), Time Bin 5 (20-25 TOTAL), AVG [2]: 0.10 | BSS scoring A (active), Time Bin 6 (25-30 TOTAL), AVG [2]: 0.17 | BSS scoring E (eating/drinking), Time Bin 1 (0-5 TOTAL), AVG [2]: 0.88 | BSS scoring E (eating/drinking), Time Bin 2 (5-10 TOTAL), AVG [2]: 0.88 | BSS scoring E (eating/drinking), Time Bin 3 (10-15 TOTAL), AVG [2]: 0.88 | BSS scoring E (eating/drinking), Time Bin 4 (15-20 TOTAL), AVG [2]: 0.93 | BSS scoring E (eating/drinking), Time Bin 5 (20-25 TOTAL), AVG [2]: 0.83 | BSS scoring E (eating/drinking), Time Bin 6 (25-30 TOTAL), AVG [2]: 0.80 | BSS scoring G (grooming), Time Bin 1 (0-5 TOTAL), AVG [2]: 0.02 | BSS scoring G (grooming), Time Bin 2 (5-10 TOTAL), AVG [2]: 0.07 | BSS scoring G (grooming), Time Bin 3 (10-15 TOTAL), AVG [2]: 0.03 | BSS scoring G (grooming), Time Bin 4 (15-20 TOTAL), AVG [2]: 0.03 | BSS scoring G (grooming), Time Bin 5 (20-25 TOTAL), AVG [2]: 0.03 | BSS scoring G (grooming), Time Bin 6 (25-30 TOTAL), AVG [2]: 0.01 | BSS scoring R (resting), Time Bin 1 (0-5 TOTAL), AVG [2]: 0.00 | BSS scoring R (resting), Time Bin 2 (5-10 TOTAL), AVG [2]: 0.01 | BSS scoring R (resting), Time Bin 3 (10-15 TOTAL), AVG [2]: 0.02 | BSS scoring R (resting), Time Bin 4 (15-20 TOTAL), AVG [2]: 0.03 | BSS scoring R (resting), Time Bin 5 (20-25 TOTAL), AVG [2]: 0.03 | BSS scoring R (resting), Time Bin 6 (25-30 TOTAL), AVG [2]: 0.03 | BSS scoring A (active), Time Bin 1 (0-5 TOTAL) [3]: 0 (3×) and 1 (5×) and 2 (4×) | BSS scoring A (active), Time Bin 2 (5-10 TOTAL) [3]: 0 (8×) and 2 and 1 (3×) | BSS scoring A (active), Time Bin 3 (10-15 TOTAL) [3]: 0 (4×) and 1 (8×) | BSS scoring A (active), Time Bin 4 (15-20 TOTAL) [3]: 0 (10×) and 1 (2×) | BSS scoring A (active), Time Bin 5 (20-25 TOTAL) [3]: 2 (2×) and 0 (5×) and 1 (4×) and 4 | BSS scoring A (active), Time Bin 6 (25-30 TOTAL) [3]: 2 (3×) and 0 (5×) and 7 and 3 (2×) and 1 | BSS scoring E (eating/drinking), Time Bin 1 (0-5 TOTAL) [3]: 10 (3×) and 9 (4×) and 7 and 8 (4×) | BSS scoring E (eating/drinking), Time Bin 2 (5-10 TOTAL) [3]: 10 (4×) and 8 (4×) and 9 (3×) and 7 | BSS scoring E (eating/drinking), Time Bin 3 (10-15 TOTAL) [3]: 10 (3×) and 9 (5×) and 8 (3×) and 7 | BSS scoring E (eating/drinking), Time Bin 4 (15-20 TOTAL) [3]: 10 (5×) and 9 (6×) and 8 | BSS scoring E (eating/drinking), Time Bin 5 (20-25 TOTAL) [3]: 7 (2×) and 10 (3×) and 9 (4×) and 8 (2×) and 4 | BSS scoring E (eating/drinking), Time Bin 6 (25-30 TOTAL) [3]: 6 and 10 (5×) and 1 and 7 (2×) and 9 and 8 (2×) | BSS scoring G (grooming), Time Bin 1 (0-5 TOTAL) [3]: 0 (10×) and 1 (2×) | BSS scoring G (grooming), Time Bin 2 (5-10 TOTAL) [3]: 0 (6×) and 2 (2×) and 1 (4×) | BSS scoring G (grooming), Time Bin 3 (10-15 TOTAL) [3]: 0 (9×) and 1 (2×) and 2 | BSS scoring G (grooming), Time Bin 4 (15-20 TOTAL) [3]: 0 (9×) and 1 (3×) | BSS scoring G (grooming), Time Bin 5 (20-25 TOTAL) [3]: 1 (4×) and 0 (8×) | BSS scoring G (grooming), Time Bin 6 (25-30 TOTAL) [3]: 0 (11×) and 1 | BSS scoring R (resting), Time Bin 1 (0-5 TOTAL) [3]: 0 | BSS scoring R (resting), Time Bin 2 (5-10 TOTAL) [3]: 0 (11×) and 1 | BSS scoring R (resting), Time Bin 3 (10-15 TOTAL) [3]: 0 (10×) and 1 (2×) | BSS scoring R (resting), Time Bin 4 (15-20 TOTAL) [3]: 0 (9×) and 1 (3×) | BSS scoring R (resting), Time Bin 5 (20-25 TOTAL) [3]: 0 (9×) and 1 (2×) and 2 | BSS scoring R (resting), Time Bin 6 (25-30 TOTAL) [3]: 2 and 0 (10×) and 1 | BSS scoring A (active), Time Bin 13 (60-65 TOTAL), AVG [4]: 0.09 | BSS scoring A (active), Time Bin 14 (65-70 TOTAL), AVG [4]: 0.13 | BSS scoring A (active), Time Bin 15 (70-75 TOTAL), AVG [4]: 0.17 | BSS scoring A (active), Time Bin 16 (75-80 TOTAL), AVG [4]: 0.16 | BSS scoring A (active), Time Bin 17 (80-85 TOTAL), AVG [4]: 0.18 | BSS scoring A (active), Time Bin 18 (85-90 TOTAL), AVG [4]: 0.12 | BSS scoring E (eating/drinking), Time Bin 13 (60-65 TOTAL), AVG [4]: 0.73 | BSS scoring E (eating/drinking), Time Bin 14 (65-70 TOTAL), AVG [4]: 0.73 | BSS scoring E (eating/drinking), Time Bin 15 (70-75 TOTAL), AVG [4]: 0.65 | BSS scoring E (eating/drinking), Time Bin 16 (75-80 TOTAL), AVG [4]: 0.64 | BSS scoring E (eating/drinking), Time Bin 17 (80-85 TOTAL), AVG [4]: 0.68 | BSS scoring E (eating/drinking), Time Bin 18 (85-90 TOTAL), AVG [4]: 0.54 | BSS scoring G (grooming), Time Bin 13 (60-65 TOTAL), AVG [4]: 0.06 | BSS scoring G (grooming), Time Bin 14 (65-70 TOTAL), AVG [4]: 0.03 | BSS scoring G (grooming), Time Bin 15 (70-75 TOTAL), AVG [4]: 0.05 | BSS scoring G (grooming), Time Bin 16 (75-80 TOTAL), AVG [4]: 0.03 | BSS scoring G (grooming), Time Bin 17 (80-85 TOTAL), AVG [4]: 0.01 | BSS scoring G (grooming), Time Bin 18 (85-90 TOTAL), AVG [4]: 0.03

— US20250108038A1 (priority 2023, published 2025)
